Values quoted from earlier work as cited in EP0558321A1 (priority 1992, dated 1993).

Tests used:
[1] = test system: herpes virus; conditions: from "J. Gen. Virol.", 67, pp. 1115-1122 (1986); cited from earlier work
[2] = test system: influenza virus; conditions: from "Acta Virol.", 28, pp. 501-507 (1984); cited from earlier work
[3] = test system: influenza virus; conditions: prior art statement; clinical efficacy not yet verified; cited from earlier work

Structure (SMILES)	anti-viral activity against herpes virus [1]	anti influenza virus action [2]	activity against influenza virus in animal tests [3]
OC(CCN1CCCCC1)(c1ccccc1)C1C2CC3C(C2)C31 (stereo not drawn) [Norakin]	lack in anti-viral activity against herpes virus	confirmed to have an anti influenza virus action	
N#C[N-]c1nncs1.[Na+] [LY253963]			resistant to influenza virus in animal tests
